In patent US20180289678A1, “PHARMACEUTICAL COMPOSITION, PHARMACEUTICAL DOSAGE FORM, PROCESS FOR THEIR PREPARATION, METHODS FOR TREATING AND USES THEREOF” (Boehringer Ingelheim International GmbH, priority 2009, published 2018):
Like-named read-outs stand apart in the source and are kept apart here.

Test: Study .2: multiple rising dose trial in diabetic patients, once daily for 8 days, pharmacokinetic parameters
Type: in vivo, human
Conditions: for Cmax / AUC / Tmax / AUC(0-inf): Study .2, fasted; for AUCτ,ss,norm Max / AUCτ,ss,norm Median / AUCτ,ss,norm Min / AUCτ,ss,norm gMean / Cmax,ss,norm Max / Cmax,ss,norm Median / Cmax,ss,norm Min / Cmax,ss,norm gMean: Study .2, steady state, dose-normalized
Procedure: 5. Pharmacokinetic Parameters
The pharmacokinetic parameters of pharmaceutical compositions and pharmaceutical dosage forms are assessed in healthy volunteer and patient populations. In the studies shown below, the participants fasted on the day of sampling, unless as otherwise stated (see for example study .3). The active substance in the studies below is the compound (I.9), preferably in the crystalline form (I.9X), and the dose of active ingredient is indicated in mg.
For the quantification of plasma concentrations of the active ingredient, 2.7 mL of blood was collected and transferred into an EDTA (ethylendiaminetetraacetic acid)-anticoagulant blood drawing tube. The EDTA-anticoagulated blood samples were centrifuged immediately after collection. Centrifugation lasted for about 10 minutes (at about 2,000×gf to 4,000×gf) at 4-8° C. or within 30 minutes while stored on ice. Concentrations of active substance in EDTA human plasma samples were quantitated using a HPLC/MS/MS method. The assay method comprised a solid phase supported liquid-liquid extraction of human plasma coupled with HPLC/MS/MS determination of the extracted samples. The HPLC/MS/MS assay was validated for the range of 1.11 to 1110 nM in human plasma.
Study .2: Multiple rising dose trial in a diabetic patient population of N=48, once daily administration for 8 days. Patients were administered tablets as described in Example 10 (section Examples of formulations).
AUC0-inf:area under the concentration-time curve of the analyte in plasma over the time interval from 0 extrapolated to infinity.
Cmax: maximum concentration of the analyte in plasma.
Tmax: time from dosing to maximum concentration.
AUCT,SS:area under the concentration-time curve of the analyte in plasma over the time interval from 0 to 24 h at steady-state.
Cmax,ss:maximum concentration of the analyte in plasma at steady state over a uniform dosing interval.
tmax,ss:time from dosing to maximum concentration at steady state.

OC[C@H]1O[C@@H](c2ccc(Cl)c(Cc3ccc(O[C@H]4CCOC4)cc3)c2)[C@H](O)[C@@H](O)[C@@H]1O [Compound (I.9), 1-chloro-4-(β-D-glucopyranos-1-yl)-2-[4-((S)-tetrahydrofuran-3-yloxy)-benzyl]-benzene]
Cmax (25 mg single dose, read-out: Cmax Min): 420 nM
AUCτ,ss,norm Max (dose 2.5 mg, plasma): 271 nmol·h/L/mg
AUCτ,ss,norm Median (dose 2.5 mg, plasma): 183 nmol·h/L/mg
AUCτ,ss,norm Min (dose 2.5 mg, plasma): 113 nmol·h/L/mg
AUCτ,ss,norm gMean (dose 2.5 mg, plasma): 184 nmol·h/L/mg
Cmax,ss,norm Max (dose 2.5 mg, plasma): 39 nmol/L/mg
Cmax,ss,norm Median (dose 2.5 mg, plasma): 29 nmol/L/mg
Cmax,ss,norm Min (dose 2.5 mg, plasma): 16 nmol/L/mg
Cmax,ss,norm gMean (dose 2.5 mg, plasma): 27 nmol/L/mg
AUCτ,ss,norm Max (dose 10 mg, plasma): 258 nmol·h/L/mg
AUCτ,ss,norm Median (dose 10 mg, plasma): 194 nmol·h/L/mg
AUCτ,ss,norm Min (dose 10 mg, plasma): 164 nmol·h/L/mg
AUCτ,ss,norm gMean (dose 10 mg, plasma): 200 nmol·h/L/mg
Cmax,ss,norm Max (dose 10 mg, plasma): 48 nmol/L/mg
Cmax,ss,norm Median (dose 10 mg, plasma): 28 nmol/L/mg
Cmax,ss,norm Min (dose 10 mg, plasma): 17 nmol/L/mg
Cmax,ss,norm gMean (dose 10 mg, plasma): 27 nmol/L/mg
AUCτ,ss,norm Max (dose 25 mg, plasma): 266 nmol·h/L/mg
AUCτ,ss,norm Median (dose 25 mg, plasma): 182 nmol·h/L/mg
AUCτ,ss,norm Min (dose 25 mg, plasma): 138 nmol·h/L/mg
AUCτ,ss,norm gMean (dose 25 mg, plasma): 196 nmol·h/L/mg
Cmax,ss,norm Max (dose 25 mg, plasma): 32 nmol/L/mg
Cmax,ss,norm Median (dose 25 mg, plasma): 24 nmol/L/mg
Cmax,ss,norm Min (dose 25 mg, plasma): 18 nmol/L/mg
Cmax,ss,norm gMean (dose 25 mg, plasma): 25 nmol/L/mg
AUC (human, plasma, oral, 2.5 mg, 2.5 mg once daily, steady state, read-out: AUCτ,ss Median): 0.458 µM·h
AUC (human, plasma, oral, 2.5 mg, 2.5 mg once daily, steady state, read-out: AUCτ,ss gMean): 0.46 µM·h
Cmax (human, plasma, oral, 2.5 mg, 2.5 mg once daily, steady state, read-out: Cmax,ss Median): 72 nM
Cmax (human, plasma, oral, 2.5 mg, 2.5 mg once daily, steady state, read-out: Cmax,ss gMean): 66.6 nM
Tmax (human, plasma, oral, 2.5 mg, 2.5 mg once daily, steady state, read-out: tmax,ss Mean): 1.33 h
Tmax (human, plasma, oral, 2.5 mg, 2.5 mg once daily, steady state, read-out: tmax,ss g Mean): 1.28 h
AUC(0-inf) (human, plasma, oral, 2.5 mg, 2.5 mg single dose, read-out: AUC0-inf Mean): 0.476 µM·h
AUC(0-inf) (human, plasma, oral, 2.5 mg, 2.5 mg single dose, read-out: AUC0-inf Median): 0.501 µM·h
AUC(0-inf) (human, plasma, oral, 2.5 mg, 2.5 mg single dose, read-out: AUC0-inf gMean): 0.468 µM·h
Cmax (human, plasma, oral, 2.5 mg, 2.5 mg single dose, read-out: Cmax Median): 62.6 nM
Cmax (human, plasma, oral, 2.5 mg, 2.5 mg single dose, read-out: Cmax gMean): 61.3 nM
Tmax (human, plasma, oral, 2.5 mg, 2.5 mg single dose, read-out: tmax Mean): 1.41 h
Tmax (human, plasma, oral, 2.5 mg, 2.5 mg single dose, read-out: tmax Median): 1.5 h
Tmax (human, plasma, oral, 2.5 mg, 2.5 mg single dose, read-out: tmax gMean): 1.37 h
AUC (human, plasma, oral, 10 mg, 10 mg once daily, steady state, read-out: AUCτ,ss Median): 1.94 µM·h
AUC (human, plasma, oral, 10 mg, 10 mg once daily, steady state, read-out: AUCτ,ss gMean): 2 µM·h
Cmax (human, plasma, oral, 10 mg, 10 mg once daily, steady state, read-out: Cmax,ss Median): 279 nM
Cmax (human, plasma, oral, 10 mg, 10 mg once daily, steady state, read-out: Cmax,ss gMean): 272 nM
Tmax (human, plasma, oral, 10 mg, 10 mg once daily, steady state, read-out: tmax,ss Mean): 1.43 h
Tmax (human, plasma, oral, 10 mg, 10 mg once daily, steady state, read-out: tmax,ss Median): 1.5 h
Tmax (human, plasma, oral, 10 mg, 10 mg once daily, steady state, read-out: tmax,ss g Mean): 1.4 h
AUC(0-inf) (human, plasma, oral, 10 mg, 10 mg single dose, read-out: AUC0-inf Mean): 1.91 µM·h
AUC(0-inf) (human, plasma, oral, 10 mg, 10 mg single dose, read-out: AUC0-inf Median): 1.83 µM·h
AUC(0-inf) (human, plasma, oral, 10 mg, 10 mg single dose, read-out: AUC0-inf gMean): 1.89 µM·h
Cmax (human, plasma, oral, 10 mg, 10 mg single dose, read-out: Cmax Median): 233 nM
Cmax (human, plasma, oral, 10 mg, 10 mg single dose, read-out: Cmax gMean): 240 nM
Tmax (human, plasma, oral, 10 mg, 10 mg single dose, read-out: tmax Mean): 1.5 h
Tmax (human, plasma, oral, 10 mg, 10 mg single dose, read-out: tmax gMean): 1.48 h
AUC (human, plasma, oral, 25 mg, 25 mg once daily, steady state, read-out: AUCτ,ss Median): 4.56 µM·h
AUC (human, plasma, oral, 25 mg, 25 mg once daily, steady state, read-out: AUCτ,ss gMean): 4.89 µM·h
Cmax (human, plasma, oral, 25 mg, 25 mg once daily, steady state, read-out: Cmax,ss Median): 603 nM
Cmax (human, plasma, oral, 25 mg, 25 mg once daily, steady state, read-out: Cmax,ss gMean): 622 nM
Tmax (human, plasma, oral, 25 mg, 25 mg once daily, steady state, read-out: tmax,ss Mean): 2.26 h
Tmax (human, plasma, oral, 25 mg, 25 mg once daily, steady state, read-out: tmax,ss g Mean): 1.97 h
AUC(0-inf) (human, plasma, oral, 25 mg, 25 mg single dose, read-out: AUC0-inf Mean): 4.9 µM·h
AUC(0-inf) (human, plasma, oral, 25 mg, 25 mg single dose, read-out: AUC0-inf Median): 4.64 µM·h
AUC(0-inf) (human, plasma, oral, 25 mg, 25 mg single dose, read-out: AUC0-inf gMean): 4.78 µM·h
Cmax (human, plasma, oral, 25 mg, 25 mg single dose, read-out: Cmax Median): 569 nM
Cmax (human, plasma, oral, 25 mg, 25 mg single dose, read-out: Cmax gMean): 592 nM
Tmax (human, plasma, oral, 25 mg, 25 mg single dose, read-out: tmax Mean): 1.72 h
Tmax (human, plasma, oral, 25 mg, 25 mg single dose, read-out: tmax Median): 1.5 h
Tmax (human, plasma, oral, 25 mg, 25 mg single dose, read-out: tmax gMean): 1.6 h
